Measured values reported in patent US20260092179A1, “GENETICALLY MODIFIED HOST CELLS PRODUCING VIOLACEIN, ANALOGUES, AND DERIVATIVES THEREOF” (OCTARINE BIO APS, priority 2022, published 2026).
Each block holds one compound with its values, some of them ahead of it.

How the values were obtained:
[1] = Stability during laundering of dyed fabrics (colour fastness, ΔE); format: physicochemical; settings: washed at 30° c.
Protocol: (§1) In order to assess the stability and colour fastness of violacein and violacein derivatives dyed onto fabrics, dyed fabrics were subjected to a number of conditions. Fabrics were dyed according to Example 18 and colour coordinates and colour change before and after exposure to a given condition were determined as described in Example 18. To measure temperature stability, fabrics were incubated in an oven set to 80° c. for 4 h. To measure stability under acid and alkaline conditions, fabrics were fully submerged in water solutions set to pH 8 with NaOH and pH 5 with HCl and incubated at room temperature for 30 minutes. Fabrics were then incubated at 37° c. for 4 h. To measure stability during laundering, fabrics were washed at 30° c. under the “mix” setting of a Siemens IQ300 washing machine, then dried in a Siemens IQ300 dryer until dry. To measure artificial light stability, fabrics were placed under an LED lamp at room temperature for 16 h. To measure UV light stability, fabrics were placed under a UV lamp at room temperature for 1 h.

[2] = Temperature stability of dyed fabrics (colour fastness, ΔE); format: physicochemical; settings: oven 80° c. for 4 h; for ΔE: before and after the stability test
Protocol: as §1

[3] = Acrylic, before and after the stability test
[4] = Bleached cotton, before and after the stability test
[5] = Diacetate, before and after the stability test
[6] = Nylon 6,6, before and after the stability test
[7] = Polyester, before and after the stability test
[8] = Wool, before and after the stability test

L ([1]; Acrylic, After test): 69.42 | a ([1]; Acrylic, After test): −1.13 | b ([1]; Acrylic, After test): 0.45 | L ([1]; Acrylic, Before test): 60.9 | a ([1]; Acrylic, Before test): 0.39 | b ([1]; Acrylic, Before test): −2.66 | ΔE [1, 3]: 9.20 | L ([1]; Bleached cotton, After test): 69.57 | a ([1]; Bleached cotton, After test): 0.39 | b ([1]; Bleached cotton, After test): −5.93 | L ([1]; Bleached cotton, Before test): 61.14 | a ([1]; Bleached cotton, Before test): 0.73 | b ([1]; Bleached cotton, Before test): −8.03 | ΔE [1, 4]: 8.69 | L ([1]; Diacetate, After test): 54.82 | a ([1]; Diacetate, After test): 10.32 | b ([1]; Diacetate, After test): −14.22 | L ([1]; Diacetate, Before test): 50.89 | a ([1]; Diacetate, Before test): 9.08 | b ([1]; Diacetate, Before test): −15.27 | ΔE [1, 5]: 4.25 | L ([1]; Nylon 6,6, After test): 47.79 | a ([1]; Nylon 6,6, After test): 6.03 | b ([1]; Nylon 6,6, After test): −20.63 | L ([1]; Nylon 6,6, Before test): 44.46 | a ([1]; Nylon 6,6, Before test): 6.19 | b ([1]; Nylon 6,6, Before test): −22.02 | ΔE [1, 6]: 3.61 | L ([1]; Polyester, After test): 74.17 | a ([1]; Polyester, After test): −0.99 | b ([1]; Polyester, After test): −0.58 | L ([1]; Polyester, Before test): 64.92 | a ([1]; Polyester, Before test): 1.08 | b ([1]; Polyester, Before test): −5.1 | ΔE [1, 7]: 10.50 | L ([1]; Wool, After test): 72.9 | a ([1]; Wool, After test): −0.9 | b ([1]; Wool, After test): 3.2 | L ([1]; Wool, Before test): 63.37 | a ([1]; Wool, Before test): −0.25 | b ([1]; Wool, Before test): −1.82 | ΔE [1, 8]: 10.79 | L ([2]; Acrylic, After test): 59.66 | a ([2]; Acrylic, After test): 0.86 | b ([2]; Acrylic, After test): −2.82 | L ([2]; Acrylic, Before test): 59.1 | a ([2]; Acrylic, Before test): 1.55 | b ([2]; Acrylic, Before test): −1.29 | ΔE ([2]; Acrylic): 1.77 | L ([2]; Bleached cotton, After test): 63.74 | a ([2]; Bleached cotton, After test): 2.09 | b ([2]; Bleached cotton, After test): −8.13 | L ([2]; Bleached cotton, Before test): 63.16 | a ([2]; Bleached cotton, Before test): 1.56 | b ([2]; Bleached cotton, Before test): −7.66 | ΔE ([2]; Bleached cotton): 0.92 | L ([2]; Diacetate, After test): 51.96 | a ([2]; Diacetate, After test): 10.78 | b ([2]; Diacetate, After test): −13.7 | L ([2]; Diacetate, Before test): 51.65 | a ([2]; Diacetate, Before test): 10.65 | b ([2]; Diacetate, Before test): −14.56 | ΔE ([2]; Diacetate): 0.92 | L ([2]; Nylon 6,6, After test): 45.2 | a ([2]; Nylon 6,6, After test): 6.79 | b ([2]; Nylon 6,6, After test): −21.25 | L ([2]; Nylon 6,6, Before test): 44.99 | a ([2]; Nylon 6,6, Before test): 6.18 | b ([2]; Nylon 6,6, Before test): −21.43 | ΔE ([2]; Nylon 6,6): 0.67 | L ([2]; Polyester, After test): 65.03 | a ([2]; Polyester, After test): 2.08 | b ([2]; Polyester, After test): −2.03 | L ([2]; Polyester, Before test): 64.62 | a ([2]; Polyester, Before test): 1.61 | b ([2]; Polyester, Before test): −2.79 | ΔE ([2]; Polyester): 0.98 | L ([2]; Wool, After test): 66.12 | a ([2]; Wool, After test): 1.93 | b ([2]; Wool, After test): −0.48 | L ([2]; Wool, Before test): 66.67 | a ([2]; Wool, Before test): −0.09 | b ([2]; Wool, Before test): −0.62 | ΔE ([2]; Wool): 2.10
SMILES: O=C1NC(c2c[nH]c3ccccc23)=C/C1=C1\C(=O)Nc2ccccc21 [deoxyviolacein]

SMILES: O=C1N=C(c2c[nH]c3ccc(O)cc23)C=C1c1c[nH]c2ccccc12 [proviolacein]
L ([1]; Acrylic, After test): 67.87 | a ([1]; Acrylic, After test): −1.12 | b ([1]; Acrylic, After test): 2.23 | L ([1]; Acrylic, Before test): 58.81 | a ([1]; Acrylic, Before test): 0.01 | b ([1]; Acrylic, Before test): 1.72 | ΔE [1, 3]: 9.14 | L ([1]; Bleached cotton, After test): 73 | a ([1]; Bleached cotton, After test): 0.55 | b ([1]; Bleached cotton, After test): 1.68 | L ([1]; Bleached cotton, Before test): 65.1 | a ([1]; Bleached cotton, Before test): 1.34 | b ([1]; Bleached cotton, Before test): 3.23 | ΔE [1, 4]: 8.09 | L ([1]; Diacetate, After test): 68.23 | a ([1]; Diacetate, After test): 3.76 | b ([1]; Diacetate, After test): 5.07 | L ([1]; Diacetate, Before test): 62.86 | a ([1]; Diacetate, Before test): 4.96 | b ([1]; Diacetate, Before test): 5.09 | ΔE [1, 5]: 5.50 | L ([1]; Nylon 6,6, After test): 56.92 | a ([1]; Nylon 6,6, After test): −1.51 | b ([1]; Nylon 6,6, After test): −3.83 | L ([1]; Nylon 6,6, Before test): 50.65 | a ([1]; Nylon 6,6, Before test): −1.57 | b ([1]; Nylon 6,6, Before test): −2.84 | ΔE [1, 6]: 6.35 | L ([1]; Polyester, After test): 72.82 | a ([1]; Polyester, After test): −0.46 | b ([1]; Polyester, After test): 0.54 | L ([1]; Polyester, Before test): 65.21 | a ([1]; Polyester, Before test): −1.18 | b ([1]; Polyester, Before test): 1.47 | ΔE [1, 7]: 7.70 | L ([1]; Wool, After test): 72.54 | a ([1]; Wool, After test): −1.14 | b ([1]; Wool, After test): 5.37 | L ([1]; Wool, Before test): 64.87 | a ([1]; Wool, Before test): 0.09 | b ([1]; Wool, Before test): 5 | ΔE [1, 8]: 7.78 | L ([2]; Acrylic, After test): 58.24 | a ([2]; Acrylic, After test): −0.6 | b ([2]; Acrylic, After test): 1.57 | L ([2]; Acrylic, Before test): 56.45 | a ([2]; Acrylic, Before test): −2.01 | b ([2]; Acrylic, Before test): 2.1 | ΔE ([2]; Acrylic): 2.34 | L ([2]; Bleached cotton, After test): 61.95 | a ([2]; Bleached cotton, After test): 1.2 | b ([2]; Bleached cotton, After test): 2.46 | L ([2]; Bleached cotton, Before test): 62.46 | a ([2]; Bleached cotton, Before test): 0.6 | b ([2]; Bleached cotton, Before test): 2.51 | ΔE ([2]; Bleached cotton): 0.79 | L ([2]; Diacetate, After test): 59.98 | a ([2]; Diacetate, After test): 5.39 | b ([2]; Diacetate, After test): 6.04 | L ([2]; Diacetate, Before test): 61.94 | a ([2]; Diacetate, Before test): 4.17 | b ([2]; Diacetate, Before test): 5.25 | ΔE ([2]; Diacetate): 2.44 | L ([2]; Nylon 6,6, After test): 49.91 | a ([2]; Nylon 6,6, After test): −1.59 | b ([2]; Nylon 6,6, After test): −4 | L ([2]; Nylon 6,6, Before test): 50.83 | a ([2]; Nylon 6,6, Before test): −2.09 | b ([2]; Nylon 6,6, Before test): −3.92 | ΔE ([2]; Nylon 6,6): 1.05 | L ([2]; Polyester, After test): 62.77 | a ([2]; Polyester, After test): −0.52 | b ([2]; Polyester, After test): 1.37 | L ([2]; Polyester, Before test): 64.1 | a ([2]; Polyester, Before test): −1.81 | b ([2]; Polyester, Before test): 1.31 | ΔE ([2]; Polyester): 1.85 | L ([2]; Wool, After test): 64.23 | a ([2]; Wool, After test): 0.18 | b ([2]; Wool, After test): 4.96 | L ([2]; Wool, Before test): 65.67 | a ([2]; Wool, Before test): −0.22 | b ([2]; Wool, Before test): 4.25 | ΔE ([2]; Wool): 1.65
